Test results taken from PubChem BioAssay (NCI).
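Cultured in 96-well plates, cells were exposed to test compound for 48 hours across five concentrations. The concentration for 50% growth inhibition is given as GI50. Definition used: TGI = concentration required for complete inhibition of growth.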

Legend:
Assay in all cases: NCI-60 cell line screen, 48 h
BT-549 breast = test system: BT-549 breast
HOP-62 NSCLC = test system: HOP-62 NSCLC
HT29 colon = test system: HT29 colon
MDA-MB-231 breast = test system: MDA-MB-231 breast
KM12 colon = test system: KM12 colon
OVCAR-4 ovarian = test system: OVCAR-4 ovarian
SF-539 CNS = test system: SF-539 CNS
SN12C renal = test system: SN12C renal
NCI-H23 lung = test system: NCI-H23 lung
TK-10 renal = test system: TK-10 renal

Structure (SMILES)	GI50 (BT-549 breast)	TGI (BT-549 breast)	GI50 (HOP-62 NSCLC)	TGI (HOP-62 NSCLC)	GI50 (HT29 colon)	TGI (HT29 colon)	GI50 (MDA-MB-231 breast)	TGI (MDA-MB-231 breast)	GI50 (KM12 colon)	TGI (KM12 colon)	GI50 (OVCAR-4 ovarian)	TGI (OVCAR-4 ovarian)	GI50 (SF-539 CNS)	TGI (SF-539 CNS)	GI50 (SN12C renal)	TGI (SN12C renal)	GI50 (NCI-H23 lung)	TGI (NCI-H23 lung)	GI50 (TK-10 renal)	TGI (TK-10 renal)
C=CC[PH+](c1ccccc1)c1ccccc1.C=CC[PH+](c1ccccc1)c1ccccc1.[Cl][Pt][Cl]	17.1 µM	35.4 µM	18.5 µM	40.5 µM	8.98 µM	32.8 µM	3.23 µM	10.3 µM	15.4 µM	35.7 µM	4.78 µM	16.8 µM	13.2 µM	26.3 µM	3.35 µM	13.9 µM	9.14 µM	23.9 µM	13.4 µM	32.7 µM
CN1C(=O)C23CC4=CC=CC(O)C4N2C(=O)C1(CO)SS3 (stereo unspecified)	–	0.742 µM	–	0.322 µM	–	11.4 µM	–	0.373 µM	–	0.453 µM	–	0.524 µM	–	0.17 µM	–	0.139 µM	–	0.348 µM	–	0.34 µM
N#Cc1ccc(N2Cc3cc(Cl)ccc3OC3=C2C(=O)N(Cc2ccccc2)C3=O)cc1	1.6 µM	3.3 µM	2.35 µM	6.12 µM	1.58 µM	3.96 µM	1.74 µM	3.99 µM	2.7 µM	8.01 µM	1.41 µM	3.26 µM	1.7 µM	3.19 µM	1.51 µM	3.14 µM	2.14 µM	5.34 µM	1.45 µM	2.77 µM
O=c1[nH]c2cc(O)ccc2n2cc3c(F)cccc3c12	> 100 µM	> 100 µM	0.847 µM	> 100 µM	5.33 µM	> 100 µM	6.42 µM	> 100 µM	1.86 µM	> 100 µM	> 100 µM	> 100 µM	1.3 µM	> 100 µM	2.57 µM	> 100 µM	3.86 µM	> 100 µM	> 100 µM	> 100 µM
O=[N+]([O-])c1cccc(-c2ncc(-c3ccc(Cl)cc3Cl)[nH]2)c1	3.05 µM	8.07 µM	9.53 µM	26.8 µM	1.88 µM	4.79 µM	11.7 µM	30.9 µM	1.75 µM	3.41 µM	3.18 µM	12.1 µM	15.4 µM	29.3 µM	6.01 µM	12.6 µM	10.6 µM	43.7 µM	3.3 µM	13.1 µM
CC(=O)C1=C(O)/C(=C\c2ccco2)OC1=O	–	> 10 µM	–	> 10 µM	–	> 10 µM	–	> 10 µM	–	> 10 µM	–	> 10 µM	–	> 10 µM	–	> 10 µM	–	> 10 µM	–	> 10 µM
CN1CCN(C(=S)SCN2C(=O)c3ccccc3S2(=O)=O)CC1	> 100 µM	> 100 µM	> 100 µM	> 100 µM	4.24 µM	18 µM	35.3 µM	> 100 µM	25.3 µM	> 100 µM	23.2 µM	72.3 µM	36.8 µM	> 100 µM	52.5 µM	> 100 µM	35.1 µM	> 100 µM	43.4 µM	> 100 µM
O=C(CN=Cc1cccs1)CSC(c1ccccc1)c1ccccc1	18.4 µM	40 µM	34 µM	> 100 µM	27.7 µM	99.2 µM	24.5 µM	95.6 µM	21 µM	52.5 µM	26.5 µM	> 100 µM	26.6 µM	71.1 µM	19.6 µM	36.1 µM	29.2 µM	> 100 µM	30.5 µM	> 100 µM
COC1C(CO)OC(n2c3ccccc3c3c4c(c5c6ccccc6[nH]c5c32)C(=O)NC4=O)C(O)C1OC(=O)C(N)CCCCN (stereo unspecified)	0.807 µM	5.62 µM	1.09 µM	17.4 µM	2.65 µM	> 50 µM	0.985 µM	8 µM	0.499 µM	4.13 µM	3.83 µM	> 50 µM	0.165 µM	0.821 µM	0.405 µM	2.36 µM	2.79 µM	> 50 µM	1.81 µM	14.6 µM
Nc1ccc2c(c1)CN1C(=O)c3ccccc3C1=N2	–	> 125 µM	45.7 µM	23.8 µM	19.2 µM	> 125 µM	–	123 µM	37.9 µM	> 125 µM	–	> 125 µM	5.29 µM	95.8 µM	44.8 µM	> 125 µM	–	> 125 µM	16.8 µM	> 125 µM
CC(C)n1nc(C#Cc2cccc(NC(=O)c3cccc(C(F)(F)F)c3)c2)c2c(N)ncnc21	2.46 µM	47.7 µM	1.11 µM	6.71 µM	0.485 µM	> 100 µM	0.256 µM	2.07 µM	3.41 µM	> 100 µM	3.54 µM	34.4 µM	0.445 µM	2.33 µM	1.28 µM	8.17 µM	1.95 µM	22.8 µM	1.78 µM	4.45 µM
